≈ marks a conversion by molar mass, not a printed value.
Assays:
[1] = tested on: S. aureus ATCC 29213; assay: Minimum Inhibitory Concentration (MIC) in LB media; assay type: cell-based, Staphylococcus aureus; details: Staphylococcus aureus, ATCC29213, LB Media
Description: (§1) The compounds of Formula I are of interest due to their potent antibacterial effects. The ability of the invention compounds disclosed herein to achieve an antibacterial effect may be evaluated with regard to their ability to inhibit the growth of bacterial species like Escherichia coli ATCC 25922, Staphylococcus aureus ATCC 29213, Klebsiella pneumoniae ATCC 13883, Acinetobacter baumannii ATCC 19606, Pseudomonas aurigenosa ATCC 27853, Enterococcus faecalis ATCC 29212 and Enterococcus faecalis ATCC 29212 using an assay based on the following Minimum Inhibitory Concentration (MIC) protocol:
(§2) The test bacteria are grown in Luria Bertani Broth (HIMEDIA M1245), 25 grams of the powder is dissolved in 1000 ml distilled water and sterilized by autoclaving at 15 lbs pressure (121° C.) for 20 minutes. The medium sterility is checked by incubating at 37° C. for a period of 48 h.
(§3) Bacterial cultures that are stored as glycerol stocks at −80° C. are sub cultured on LB agar plates to obtain isolated colonies. A single colony of each strain is cultured in LB broth. The cultures are incubated at 37° C., 200 rpm till they reach an optical density (OD at 600 nm) of 0.8 to 1. […] Test compounds are dissolved in dimethyl sulfoxide (DMSO) to a stock concentration of 4 mg/ml. A twofold dilution series of this DMSO stock is prepared in a 96 well V bottom microtitre plate from rows A to H. A 3 μL volume of these dilutions are transferred to a 96-well flat bottom microtitre assay plate. Controls to monitor the effects of DMSO and media sterility are included. Each well is inoculated with 150 μL of the above diluted culture. The plates are incubated at 37° C. overnight in a humidified incubator. The following morning, the plates are read using a Spectrophotometer at 600 nm wavelength. […] The antibacterial activity (MIC) determined against representative Gram positive (S. aureus, E. faecalis) and Gram negative (E. coli, P. aurigenosa, K. pneumoniae and A. baumannii) pathogen were reported Table 1.

[2] = tested on: E. faecalis ATCC 29212; assay: Minimum Inhibitory Concentration (MIC) in LB media; assay type: cell-based, Enterococcus faecalis; details: Enterococcus faecalis, ATCC29212
Description: as §1, §2, §3

[3] = tested on: E. coli ATCC 25922; assay: Minimum Inhibitory Concentration (MIC) in LB media; assay type: cell-based, Escherichia coli; details: Escherichia coli, ATCC25922, LB Media
Description: as §1, §2, §3

[4] = tested on: P. aurigenosa ATCC 27853; assay: Minimum Inhibitory Concentration (MIC) in LB media; assay type: cell-based, Pseudomonas aurigenosa; details: Pseudomonas, ATCC27853, LB Media
Description: as §1, §2, §3

[5] = tested on: K. pneumoniae ATCC 13883; assay: Minimum Inhibitory Concentration (MIC) in LB media; assay type: cell-based, Klebsiella pneumoniae; details: Klebsiella pneumoniae, ATCC13883, LB Media
Description: as §1, §2, §3

[6] = tested on: A. baumannii ATCC 19606; assay: Minimum Inhibitory Concentration (MIC) in LB media; assay type: cell-based, Acinetobacter baumannii; details: Acinetobacter baumannii, ATCC19606, LB Media
Description: as §1, §2, §3

[7] = biological target: E. coli DNA gyrase (Escherichia coli, UniProt P0AES4+P0AES6); assay: biochemical; details: supercoiling assay
[8] = tested on: E. coli clinical strains; assay: MIC50 and MIC90 studies using clinical strains (CLSI guidelines); assay type: cell-based
[9] = tested on: A. baumannii (Aba) clinical strains; assay: as above; assay type: cell-based
[10] = tested on: K. pneumoniae (Kpn) clinical strains; assay: as above; assay type: cell-based
[11] = tested on: P. aurigenosa (Pae) clinical strains; assay: as above; assay type: cell-based
[12] = Escherichia coli, E. coli, 201 strains
[13] = Acinetobacter baumannii, Aba, 169 strains
[14] = Klebsiella pneumoniae, Kpn, 211 strains

| Compound | MIC [1] [µg/mL] | MIC [2] [µg/mL] | MIC [3] [µg/mL] | MIC [4] [µg/mL] | MIC [5] [µg/mL] | MIC [6] [µg/mL] | also measured |
| --- | --- | --- | --- | --- | --- | --- | --- |
| CN1C(=O)C(C)(C)c2ccc(F)c(CNCCC3CN(c4ccc5c(n4)NC(=O)CO5)C(=O)O3)c21 (stereo not drawn) [Example 4, 6-(5-(2-(((6-fluoro-1,3,3-trimethyl-2-oxoindolin-7-yl)methyl)amino)ethyl)-2-oxooxazolidin-3-yl)-2H-pyrido[3,2-b][1,4]oxazin-3(4H)-one] | > 80 | > 80 | > 80 | > 80 | > 80 | > 80 | IC50 [7]: 14 µM |
| Cc1ncc(N2CC(CCNCc3c(F)ccc4c3N(C)C(=O)C4)OC2=O)cc1C#N (stereo not drawn) [Example 5, 5-(5-(2-(((6-Fluoro-1-methyl-2-oxoindolin-7-yl)methyl)amino)ethyl)-2-oxooxazolidin-3-yl)-2-methylnicotinonitrile] | 80 (≈ 189 µM) | 80 (≈ 189 µM) | 80 (≈ 189 µM) | > 80 | > 80 | 40 (≈ 94.5 µM) |  |
| CN1C(=O)Cc2ccc(F)c(C(O)CNCCC3CN(c4ccc5c(n4)NC(=O)CO5)C(=O)O3)c21 (stereo not drawn) [Example 15, 6-(5-(2-((2-(6-fluoro-1-methyl-2-oxoindolin-7-yl)-2-hydroxyethyl)amino)ethyl)-2-oxooxazolidin-3-yl)-2H-pyrido[3,2-b][1,4]oxazin-3(4H)-one] | 1 (≈ 2.06 µM) | 2 (≈ 4.12 µM) | 1 (≈ 2.06 µM) | 2 (≈ 4.12 µM) | 2 (≈ 4.12 µM) | 4 (≈ 8.24 µM) | IC50 [7]: 0.135 µM |
| CN1C(=O)Cc2ncc(F)c(CNCCCC3CN(c4ccc5c(n4)NC(=O)CO5)C(=O)O3)c21 (stereo not drawn) [Example 17, 6-(5-(3-(((6-Fluoro-1-methyl-2-oxo-2,3-dihydro-1H-pyrrolo[3,2-b]pyridin-7-yl)methyl)amino)propyl)-2-oxooxazolidin-3-yl)-2H-pyrido[3,2-b][1,4]oxazin-3(4H)-one] | 1 (≈ 2.13 µM) | 4 (≈ 8.5 µM) | 1 (≈ 2.13 µM) | > 16 | 2 (≈ 4.25 µM) | 0.5 (≈ 1.06 µM) |  |
| C[C@@H](O)[C@H]1C(=O)N2C(C(=O)O)=C(S[C@@H]3CN[C@H](C(=O)N(C)C)C3)[C@H](C)[C@H]12 [Meropenem, reference compound] |  |  |  |  |  |  | MIC ATCC25922 ([8]; E. coli reference strain ATCC25922, no unit in this row (MIC50/MIC90 rows: μg/ml)): 0.06 µg/mL (≈ 0.156 µM); Minimum (MIC) ([8]; E. coli, 201 strains, unit inferred): 0.03 µg/mL; MIC50 [8, 12]: 0.06 µg/mL (≈ 0.156 µM); MIC90 [8, 12]: 4 µg/mL (≈ 10.4 µM); MIC ATCC19606 ([9]; Aba reference strain ATCC19606, unit inferred): 0.5 µg/mL (≈ 1.3 µM); Minimum (MIC) ([9]; Aba, 169 strains, unit not given, in µg/mL): 0.03125; MIC50 [9, 13]: 8 µg/mL (≈ 20.9 µM); MIC90 [9, 13]: 32 µg/mL (≈ 83.4 µM); MIC50 [10, 14]: 1 µg/mL (≈ 2.61 µM); MIC90 [10, 14]: 16 µg/mL (≈ 41.7 µM); MIC ATCC13883 ([10]; Kpn reference strain ATCC13883, unit inferred): 0.06 µg/mL (≈ 0.156 µM); Minimum (MIC) ([10]; Kpn, 211 strains, unit inferred): 0.03 µg/mL; MIC ATCC27853 ([11]; Pae reference strain ATCC27853, unit inferred): 0.5 µg/mL (≈ 1.3 µM); MIC50 ([11]; Pae, 215 strains): 2 µg/mL (≈ 5.22 µM); MIC90 ([11]; Pae, 215 strains): 8 µg/mL (≈ 20.9 µM); Minimum (MIC) ([11]; Pae, 215 strains, unit not given, in µg/mL): 0.03 |

More lines, main results first:

| MIC [1] [µg/mL] | MIC [2] [µg/mL] | MIC [3] [µg/mL] | MIC [4] [µg/mL] | MIC [5] [µg/mL] | MIC [6] [µg/mL] | Compound | also measured |
| --- | --- | --- | --- | --- | --- | --- | --- |
| 0.6 (≈ 1.32 µM) | 1.25 (≈ 2.75 µM) | 1.25 (≈ 2.75 µM) | 20 (≈ 44 µM) | 5 (≈ 11 µM) | 0.6 (≈ 1.32 µM) | CN1C(=O)Cc2ccc(F)c(CNCCC3CN(c4ccc5c(c4)NC(=O)CO5)C(=O)O3)c21 (stereo not drawn) [Example 3, 6-(5-(2-(((6-fluoro-1-methyl-2-oxoindolin-7-yl)methyl)amino)ethyl)-2-oxooxazolidin-3-yl)-2H-benzo[b][1,4]oxazin-3(4H)-one] |  |
| 0.15 (≈ 0.32 µM) | 0.6 (≈ 1.28 µM) | 1.25 (≈ 2.66 µM) | 20 (≈ 42.6 µM) | 5 (≈ 10.7 µM) | 0.3 (≈ 0.639 µM) | CCN1C(=O)Cc2ccc(F)c(CNCCC3CN(c4ccc5c(n4)NC(=O)CO5)C(=O)O3)c21 (stereo not drawn) [Example 7, 6-(5-(2-(((1-Ethyl-6-fluoro-2-oxoindolin-7-yl)methyl)amino)ethyl)-2-oxooxazolidin-3-yl)-2H-pyrido[3,2-b][1,4]oxazin-3(4H)-one] |  |
| 4 (≈ 8.48 µM) | 4 (≈ 8.48 µM) | 0.5 (≈ 1.06 µM) | 4 (≈ 8.48 µM) | 1 (≈ 2.12 µM) | 0.5 (≈ 1.06 µM) | Cn1c(=O)oc2ccc(F)c(CCNCCC3CN(c4ccc5c(n4)NC(=O)CO5)C(=O)O3)c21 (stereo not drawn) [Example 16, 6-(5-(2-((2-(5-Fluoro-3-methyl-2-oxo-2,3-dihydrobenzo[d]oxazol-4-yl)ethyl)amino)ethyl)-2-oxooxazolidin-3-yl)-2H-pyrido[3,2-b][1,4]oxazin-3(4H)-one] |  |
